Data from US8796321B2, “Compounds, compositions and methods comprising oxadiazole derivatives” (PATH Drug Solutions, priority 2008, dated 2014).

Each compound was assayed on cholera toxin (CTX) induced net fluid secretion in intestinal loops. Conditions: mouse, in vivo.
Set-up: species or system mice (CD1 strain)

Row | SMILES | closed loop % inhibition @ 10 μg [%] | closed loop % inhibition @ 100 μg [%]
1 | CC(C)(C)C(=O)CN(Cc1cccc(C(F)(F)F)c1)C(=O)c1nc(-c2cc(Br)c(O)c(Br)c2)no1 [compound 1, 3-(3,5-dibromo-4-hydroxyphenyl)-N-(3,3-dimethyl-2-oxobutyl)-N-(3-(trifluoromethyl)benzyl)-1,2,4-oxadiazole-5-carboxamide] | 69.4 | 87.1
2 | O=C(NCc1ccc(Oc2ccccc2)cc1)c1nc(-c2cc(Br)c(O)c(Br)c2)no1 [compound 13, 3-(3,5-dibromo-4-hydroxyphenyl)-N-(4-phenoxybenzyl)-1,2,4-oxadiazole-5-carboxamide] | 88.6 | 94.7
3 | O=C(NCc1cccc(OC(F)(F)F)c1)c1noc(-c2cc(Br)c(O)c(Br)c2)n1 [compound 65, 5-(3,5-dibromo-4-hydroxyphenyl)-N-(3-(trifluoromethoxy)benzyl)-1,2,4-oxadiazole-3-carboxamide] |  | 94.6
4 | O=C(NCc1cc(F)cc(F)c1)c1noc(-c2cc(Cl)c(O)c(Cl)c2)n1 [compound 112, 5-(3,5-dichloro-4-hydroxyphenyl)-N-(3,5-difluorobenzyl)-1,2,4-oxadiazole-3-carboxamide] |  | 51
5 | O=C(NCc1cccc(OC(F)(F)F)c1)c1noc(-c2cc(Cl)c(O)c(Cl)c2O)n1 [compound 120, 5-(3,5-dichloro-2,4-dihydroxyphenyl)-N-(3-(trifluoromethoxy)benzyl)-1,2,4-oxadiazole-3-carboxamide] |  | 62.3
